Data published in patent EP4603105A1, “PHARMACEUTICAL COMPOSITION CONTAINING CYCLIC COMPOUND HAVING SELECTIVE KRAS INHIBITORY EFFECT AGAINST HRAS AND NRAS” (CHUGAI SEIYAKU KABUSHIKI KAISHA, priority 2022, dated 2024).
Where a SMILES comes first, the peptide text is derived from it. Bridges are numbered along the chain shown (N, C = ends). [ ]: non-standard residue; d: D form. The star is where a group is joined. hPhe(3-Cl-4-CF3) = N[C@@H](CCc1ccc(C(F)(F)F)c(Cl)c1)C(=O)O; NPrPhe(4-CF3) = CCCN[C@@H](Cc1ccc(C(F)(F)F)cc1)C(=O)O; Piperazinyl(4-(3-oxetanyl)) = C1OCC1N1CCN(*)CC1; NEtPhe(4-Me) = CCN[C@@H](Cc1ccc(C)cc1)C(=O)O; NMeGly(cPent) = CN[C@H](C(=O)O)C1CCCC1; Hyp = O=C(O)[C@@H]1C[C@@H](O)CN1; NMeD = CN[C@@H](CC(=O)O)C(=O)O; NMeL = CN[C@@H](CC(C)C)C(=O)O; Morpholide = C1CN(*)CCO1; NMeA = CN[C@@H](C)C(=O)O; Ac5c = NC1(C(=O)O)CCCC1; Aze = O=C(O)[C@@H]1CCN1; Ac4c = NC1(C(=O)O)CCC1; Sar = CNCC(=O)O

Columns and labels:
[1] = tested on: human lung cancer strain NCI-H441; format: cell-based
Summary of the method: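 Signal came from […] measured per well once the reagent was added. Beforehand, cells were cultured at 37°C and 5% carbon dioxide on a compound series serially diluted in dimethyl sulfoxide.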

[2] = biological target: GDP-bound NRAS wild-type protein (Homo sapiens, UniProt P01111); experiment: Binding to NRAS by surface plasmon resonance (SPR), KD and KD ratio to KRAS
GDP-bound NRAS wild-type protein, sequence (P01111 whole entry): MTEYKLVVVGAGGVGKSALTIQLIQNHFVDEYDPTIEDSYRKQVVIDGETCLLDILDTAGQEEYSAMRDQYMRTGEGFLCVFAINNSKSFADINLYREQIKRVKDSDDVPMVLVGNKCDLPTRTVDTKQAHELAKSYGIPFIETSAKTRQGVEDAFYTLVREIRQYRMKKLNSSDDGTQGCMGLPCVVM
Summary of the method: (§1)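 Recombinant RAS proteins bearing a biotinylated Avi tag and loaded with GDP served as the captured ligand, recaptured fresh every cycle. Binding responses were referenced to an uncoated surface and a buffer-only blank cycle. Dissociation constants were obtained by 1:1 model fitting at 30°C.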

HRAS wild-type protein = HRAS wild-type protein (Homo sapiens, UniProt P01112); experiment: Binding to HRAS by surface plasmon resonance (SPR), KD and KD ratio to KRAS
HRAS wild-type protein, sequence (P01112 whole entry): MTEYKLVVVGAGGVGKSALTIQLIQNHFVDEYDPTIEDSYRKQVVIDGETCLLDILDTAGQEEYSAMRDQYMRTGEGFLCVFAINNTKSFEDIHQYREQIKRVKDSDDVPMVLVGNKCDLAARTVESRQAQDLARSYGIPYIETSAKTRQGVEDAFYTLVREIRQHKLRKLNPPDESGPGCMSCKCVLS
Summary of the method: as §1

[3] = ratio of KD for GDP-bound NRAS wild-type protein to KD for KRAS
[4] = ratio of KD for HRAS wild-type protein to KD for KRAS
[5] = ratio of the KD value with respect to GDP-bound NRAS wild-type protein to the KD value with respect to KRAS
[6] = ratio of the KD value with respect to HRAS wild-type protein to the KD value with respect to KRAS
[7] = ratio of KD value for GDP-bound NRAS wild-type protein to KD value for KRAS (SPR)
[8] = ratio of KD value for HRAS wild-type protein to KD value for KRAS (SPR)

Row | Structure (SMILES) | IC50 [1] | NRAS /KRAS [2, 3] | HRAS /KRAS (HRAS wild-type protein; [4]) | NRAS /KRAS [2, 5] | HRAS /KRAS (HRAS wild-type protein; [6]) | NRAS /KRAS [2, 7] | HRAS /KRAS (HRAS wild-type protein; [8])
1 | CCC[C@H]1C(=O)N[C@@H]([C@@H](C)CC)C(=O)N(C)CC(=O)N(C)[C@H]2C/C=C\CCN(C2=O)[C@@H](Cc2ccc(C)cc2)C(=O)N(C)CC(=O)N[C@@H](CCc2ccc(C(F)(F)F)c(OC)c2)C(=O)N2C[C@H](OCC)C[C@H]2C(=O)N(C)C2(CCC2)C(=O)N(C)[C@@H](C2CCCC2)C(=O)N(C)[C@H](C(=O)N2CCCC2)CC(=O)N1C [PP3106] | 2.9 nM | A (a compound having 10 or more and less than 20 is denoted as A) | A (a compound having 10 or more and less than 20 is denoted as A) | – | – | – | –
2 | CC[C@H](C)[C@@H]1NC(=O)[C@@H]2CCCCCCc3ccc(cc3)C[C@@H](C(=O)N(C)CC(=O)N[C@@H](CCc3ccc(C(F)(F)F)c(OC)c3)C(=O)N3C[C@H](OC4CCC4)C[C@H]3C(=O)NC3(CC(C)(C)C3)C(=O)N(C)[C@@H](C3CCCC3)C(=O)N(C)[C@H](C(=O)N(C)C)CC(=O)N2C)N2CC/C=C\C[C@@H](C2=O)N(C)C(=O)CN(C)C1=O [PP3068] | 4.5 nM | A (a compound having 10 or more and less than 20 is denoted as A) | B (a compound having 3 or more and less than 10 is denoted as B) | – | – | – | –
3 | CCCN1C(=O)[C@@H]2CCN2C(=O)[C@H](C)N(C)C(=O)[C@H]([C@@H](C)CC)NC(=O)[C@H](CC(C)C)N(C)C(=O)C[C@@H](C(=O)N2CCN(C3COC3)CC2)N(C)C(=O)[C@H](C2CCCC2)N(C)C(=O)C2(CCCC2)NC(=O)[C@@H]2CCCN2C(=O)[C@H](CCc2ccc(C(F)(F)F)c(Cl)c2)NC(=O)CN(C)C(=O)[C@@H]1Cc1ccc(C(F)(F)F)cc1 [PP0184] ([NMeL]I[NMeA][Aze][NPrPhe(4-CF3)][Sar][hPhe(3-Cl-4-CF3)]P[Ac5c][NMeGly(cPent)][NMeD]-{Piperazinyl(4-(3-oxetanyl))}; lactam N-11) | 2.1 nM | C (A compound having a KD ratio of 0.1 or more and less than 3 is denoted as C) | B (a compound having 3 or more and less than 10 is denoted as B) | – | – | – | –
4 | CC[C@H](C)[C@@H]1NC(=O)[C@H](C)N(C)C(=O)C[C@@H](C(=O)N2CCOCC2)N(C)C(=O)[C@H](C2CCCC2)N(C)C(=O)C2(CCC2)NC(=O)[C@@H]2CC(F)(F)CN2C(=O)[C@H](CCc2cc(F)c(C(F)(F)F)c(F)c2)NC(=O)CN(C)C(=O)[C@H](Cc2ccc(C(F)(F)F)cc2)N2CCCC[C@@H](C2=O)N(C)C(=O)CN(C)C1=O [PP0582] | 9.6 nM | – | – | C (A compound having a KD ratio of 0.1 or more and less than 3 is denoted as C) | B (a compound having 3 or more and less than 10 is denoted as B) | – | –
5 | CCCOC[C@H]1C(=O)N[C@@H]([C@@H](C)CC)C(=O)N(C)CC(=O)N(C)[C@H]2C/C=C\CCN(C2=O)[C@@H](Cc2ccc(C(F)(F)F)cc2)C(=O)N(C)CC(=O)N[C@@H](CCc2ccc(C(F)(F)F)c(OC)c2)C(=O)N2C[C@H](OCC)C[C@H]2C(=O)NC2(CC(C)(C)C2)C(=O)N(C)[C@@H](C2CCCC2)C(=O)N(C)[C@H](C(=O)N(C)C)CC(=O)N1C [PP1657] | 2 nM | – | – | – | – | A (a compound having 10 or more and less than 20 is denoted as A) | B (a compound having 3 or more and less than 10 is denoted as B)
6 | CCO[C@@H]1C[C@H]2C(=O)NC3(CCC3)C(=O)N(C)[C@@H](C3CCCC3)C(=O)N(C)[C@H](C(=O)N3CCOCC3)CC(=O)N(C)[C@@H](CC(C)C)C(=O)N[C@@H]([C@@H](C)CC)C(=O)N(C)CC(=O)N(C)[C@H]3CCCCCN(C3=O)[C@@H](Cc3ccc4sccc4c3)C(=O)N(C)CC(=O)N[C@@H](CCc3cc(F)c(C(F)(F)F)c(F)c3)C(=O)N2C1 [PP0920] | 75.5 nM | B (a compound having 3 or more and less than 10 is denoted as B) | B (a compound having 3 or more and less than 10 is denoted as B) | – | – | – | –
7 | CC[C@H](C)[C@@H]1NC(=O)[C@H](CC(C)C)NC(=O)C[C@@H](C(=O)N2CCOCC2)N(C)C(=O)[C@H](C2CCCC2)N(C)C(=O)C2(CCCC2)NC(=O)[C@@H]2CCCN2C(=O)[C@H](CCc2cc(F)c(C(F)(F)F)c(F)c2)NC(=O)CN(C)C(=O)[C@H](Cc2ccc(C(F)(F)F)cc2)N2CCCCC[C@@H](C2=O)N(C)C(=O)CN(C)C1=O [PP0516] | 457 nM | – | – | B (a compound having 3 or more and less than 10 is denoted as B) | B (a compound having 3 or more and less than 10 is denoted as B) | – | –
8 | CCCN1C(=O)[C@@H]2CCN2C(=O)CN(C)C(=O)[C@H]([C@@H](C)CC)NC(=O)[C@H](CC(C)C)N(C)C(=O)C[C@@H](C(=O)N(C)C)N(C)C(=O)[C@H](C2CCCC2)N(C)C(=O)C2(CCC2)NC(=O)[C@@H]2CCCN2C(=O)[C@H](CCc2ccc(C(F)(F)F)c(Cl)c2)NC(=O)CN(C)C(=O)[C@@H]1Cc1ccc(C(F)(F)F)cc1 [PP0441] ([NMeL]I[Sar][Aze][NPrPhe(4-CF3)][Sar][hPhe(3-Cl-4-CF3)]P[Ac4c][NMeGly(cPent)][NMeD]-NMe2; lactam N-11) | 3.4 nM | – | – | C (A compound having a KD ratio of 0.1 or more and less than 3 is denoted as C) | C (A compound having a KD ratio of 0.1 or more and less than 3 is denoted as C) | – | –
9 | CCCN1C(=O)[C@@H]2CCN2C(=O)[C@H](C)N(C)C(=O)[C@H]([C@@H](C)CC)NC(=O)[C@H](CC(C)C)N(C)C(=O)C[C@@H](C(=O)N2CCOCC2)N(C)C(=O)[C@H](C2CCCC2)N(C)C(=O)C2(CCCC2)NC(=O)[C@@H]2CCCN2C(=O)[C@H](CCc2ccc(C(F)(F)F)c(Cl)c2)NC(=O)CN(C)C(=O)[C@@H]1Cc1ccc(C(F)(F)F)cc1 [PP0053] ([NMeL]I[NMeA][Aze][NPrPhe(4-CF3)][Sar][hPhe(3-Cl-4-CF3)]P[Ac5c][NMeGly(cPent)][NMeD]-Morpholide; lactam N-11) | 4.6 nM | C (A compound having a KD ratio of 0.1 or more and less than 3 is denoted as C) | C (A compound having a KD ratio of 0.1 or more and less than 3 is denoted as C) | – | – | – | –
10 | CCCCO[C@H]1CCN2C(=O)[C@H](CCc3cc(F)c(C(F)(F)F)c(F)c3)NC(=O)CN(C)C(=O)[C@H](Cc3ccc(C(F)(F)F)cc3)N3CCCC[C@@H](C3=O)N(C)C(=O)CN(C)C(=O)[C@H]([C@@H](C)CC)NC(=O)[C@H](CC(C)C)N(C)C(=O)C[C@@H](C(=O)N3CCOCC3)N(C)C(=O)[C@H](C3CCCC3)N(C)C(=O)C3(CCC3)NC(=O)[C@H]12 [PP1071] | 24.7 nM | B (a compound having 3 or more and less than 10 is denoted as B) | B (a compound having 3 or more and less than 10 is denoted as B) | – | – | – | –
11 | CCO[C@@H]1C[C@H]2C(=O)NC3(CC(C)(C)C3)C(=O)N(C)[C@@H](C3CCCC3)C(=O)N(C)[C@H](C(=O)N(C)C)CC(=O)N(C)[C@@H](CC3CCC3)C(=O)N[C@@H]([C@@H](C)CC)C(=O)N(C)CC(=O)N(C)[C@H]3C/C=C\CCN(C3=O)[C@@H](Cc3ccc(C(F)(F)F)cc3)C(=O)N(C)CC(=O)N[C@@H](CCc3cc(F)c(C(F)(F)F)c(F)c3)C(=O)N2C1 [PP1651] | 2.3 nM | – | – | – | – | A (a compound having 10 or more and less than 20 is denoted as A) | B (a compound having 3 or more and less than 10 is denoted as B)
12 | CCCN(C)C(=O)[C@@H]1CC(=O)N(C)[C@@H](CC(C)C)C(=O)N[C@@H](C2CCOCC2)C(=O)N(C)CC(=O)N(C)[C@H]2C/C=C\CCN(C2=O)[C@@H](Cc2ccc(C(F)(F)F)cc2)C(=O)N(C)CC(=O)N[C@@H](CCc2cc(F)c(C(F)(F)F)c(F)c2)C(=O)N2C[C@H](OCC)C[C@H]2C(=O)NC2(CC(C)(C)C2)C(=O)N(C)[C@@H](C2CCCC2)C(=O)N1C [PP1923] | 68 nM | – | – | A (a compound having 10 or more and less than 20 is denoted as A) | A (a compound having 10 or more and less than 20 is denoted as A) | – | –
13 | CC[C@H](C)[C@@H]1NC(=O)[C@H](CC(C)C)N(C)C(=O)C[C@@H](C(=O)N2CCCCC2)N(C)C(=O)[C@H](C2CCCC2)N(C)C(=O)C2(CCCC2)NC(=O)[C@@H]2CCCN2C(=O)[C@H](CCc2cc(F)c(C(F)(F)F)c(F)c2)NC(=O)CN(C)C(=O)[C@H](Cc2ccc(C(F)(F)F)cc2)N2CCCCC[C@@H](C2=O)N(C)C(=O)CN(C)C1=O [PP0510] | 391 nM | – | – | B (a compound having 3 or more and less than 10 is denoted as B) | B (a compound having 3 or more and less than 10 is denoted as B) | – | –
14 | CC[C@H](C)[C@@H]1NC(=O)[C@H](CC(C)C)N(C)C(=O)C[C@@H](C(=O)N2CCOCC2)N(C)C(=O)[C@H](C2CCCC2)N(C)C(=O)C2(CCCC2)NC(=O)[C@@H]2C[C@@H](O)CN2C(=O)[C@H](CCc2ccc(C(F)(F)F)c(Cl)c2)NC(=O)CN(C)C(=O)[C@H](Cc2ccc(C)cc2)N(CC)C(=O)[C@@H]2CCN2C(=O)[C@H](C)N(C)C1=O [PP0013] ([NMeL]I[NMeA][Aze][NEtPhe(4-Me)][Sar][hPhe(3-Cl-4-CF3)][Hyp][Ac5c][NMeGly(cPent)][NMeD]-Morpholide; lactam N-11) | 9.8 nM | C (A compound having a KD ratio of 0.1 or more and less than 3 is denoted as C) | C (A compound having a KD ratio of 0.1 or more and less than 3 is denoted as C) | – | – | – | –
